Experiments:
[1] = test system: Zaxinone Synthase (ZAS); assay: qRT-PCR of ZAS transcript levels in rice after zaxinone or GR24; format: in vivo, rice (Nipponbare); settings: WT rice, phosphate starvation, 5 μM, 6 h
Experimental: (§1) Total RNA was extracted from the roots and shoots using a Qiagen Plant RNeasy Kit according to the manufacturer's instruction. cDNA was synthesized from 1 μg of total RNA using iScript cDNA Synthesis Kit (BIO-RAD Laboratories, Inc, 2000 Alfred Nobel Drive, Hercules, CA, Cat. No #170-8890) according to instructions in the user manual. For mycorrhizal samples, single-strand cDNA was synthesized from 1 μg of total RNA using Super-Script II (Invitrogen) according to instructions in the user manual. Primers used for real-time quantitative RT-PCR (qRT-PCR) analysis are listed below in Table 3. qRT-PCR was performed using SYBR Green Master Mix (Applied Biosystems; www.lifetechnologies.com) in a StepOnePlus (Life Technologies, Carlsbad, CA, USA). For mycorrhizal samples, qRT-PCR was performed using a Rotor-Gene Q 5plex HRM Platform (Qiagen). The 2-ΔCt method was used to calculate the relative gene expression levels and rice Ubiquitin (OsUBQ or OsRubQ1) gene was used as the internal control to normalize target gene expression.
FIGS. 14A-14C show transcript levels of Zaxinone Synthase (ZAS) in wild type roots and shoots. In FIG. 14A, the relative expression levels of ZAS under normal (+Pi) and phosphate-starved (−Pi) conditions in Nipponbare wild-type (WT) roots and shoots is seen. The expression levels in the WT root were normalized to 1. In FIG. 14B, the relative expression levels of ZAS under −Pi conditions with 5 μM of Zaxinone and GR24 treatment in WT rice root and shoot is seen. Three weeks-old seedlings were transferred to new hydroponic pots containing fresh media with or without chemicals for 6 h. The expression levels in the WT-mock were normalized to 1 and the expression levels were detected by qRT-PCR. Ubiquitin was used as a reference gene. Bars represent mean±SD (n=3). Mock treatment (0.1% acetone). Different letters above each bar denote significant difference following a One-way ANOVA test (P<0.05).

[2] = test system: SL biosynthesis genes (D27, CCD7, CCD8 and CO); assay: qRT-PCR of transcript levels of SL biosynthesis genes (all four together) in rice roots; format: in vivo; settings: Shiokari wild-type and d3 seedlings, phosphate-starved, 5 μM, 6 h
Experimental: For the analysis of SL transcript levels in the zas mutant, one week-old seedlings were grown hydroponically in half-strength modified Hoagland nutrient solution with K2HPO4·2H2O (+Pi) and without K2HPO4·2H2O (−Pi) for 7 days. Seedlings were further treated with zaxinone for 6 h and tissues were collected.
as §1
Two week-old seedlings were grown for another one week in −Pi solution and then transferred to new vials containing fresh −Pi solution with and without the indicated concentrations (2.5 μM, 5 μM, 10 μM and 20 μM) of zaxinone for 6 h and samples were collected. SL biosynthetic genes expression for D27 (FIG. 19A), CCD7 […], CCD8 (FIG. 19C), and CO (Carlactone oxidase-FIG. 19D) in WT and zas mutants. […] The expression levels were detected by quantitative RT-PCR. Ubiquitin was used as a reference gene and the expression levels in the WT-mock were normalized to 1. Bars represent mean±SD (n=3). Different letters above each bar denote significant difference following a One-way ANOVA test (P<0.05).
Transcript levels of SL biosynthesis genes, D27 (FIG. 24C), CCD7/D17 (FIG. 24D), CCD8/D10 (FIG. 24E) and OsCO (Carlactone oxidase—FIG. 24F) in root tissues were collected for SL quantification. The expression levels were detected by qRT-PCR. Ubiquitin was used as a reference gene and the expression levels in the WT-mock were normalized to 1. Two week-old seedlings were grown for another one week in −Pi solution and then transferred to new vials containing fresh −Pi solution with and without 5 μM of zaxinone and GR24 for 6 h and samples were collected. Bars represent mean±SD (n=3). Different letters above each bar denote significant difference following a One-way ANOVA test (P<0.05).

CC1=C[C@H](O/C=C2/C(=O)O[C@@H]3c4ccccc4C[C@H]23)OC1=O [GR24, reference compound]
ZAS transcript levels in root tissues [1]: negatively impacted | SL transcript levels in roots [2]: affected the transcript levels only in wild-type seedlings

From patent publication US11839210B1, “Plant growth promoter with strigolactones regulation activities” (King Abdullah University of Science and Technology, priority 2017, dated 2023)
